Measurements: publication PMC11219871, “Epigenetic-based differentiation therapy for Acute Myeloid Leukemia” (Nature Communications, 2024)
Values joined by “and” are separate entries in the source; they are usually repeats but may differ in a detail not shown here. Equal entries are not always repeated.

Assays:
HL-60 = test: CUT&RUN of BRD4, H3K27Ac and H3K9Ac; assay type: cell-based, human; conditions: HL-60, 12 h
Protocol: CUT&RUN was performed with the kit CUTANA ChIC/CUT&RUN (Epicypher, 14-1048) following the manufacturer’s instructions. Briefly, 0.5 million of HL-60 cells were harvested and resuspended in 100ul wash buffer [20 mM HEPES pH 7.5, 150 mM NaCl, 0.5 mM Spermidine, supplemented with Protease Inhibitor EDTA-Free tablet (Roche 11836170001)]. Activated Concanavalin A was incubated with cells at room temperature for 10 min to let the cells bind to the beads. For each target protein factor, 0.5 μg of BRD4 CUTANA CUT&RUN antibody (Cat No 13-2003, Epicypher), Acetyl-Histone H3 (Lys 9) (C5B11) rabbit monoclonal antibody diluted 1:50 (Cat No 9649 T, Cell Signaling) or Acetyl-Histone H3 (Lys 27) (D5E4) XP rabbit monoclonal antibody diluted 1:100 (Cat No 8173T, Cell Signaling) was added to each sample and incubated in the antibody buffer (wash buffer +0.01% Digitonin and 2 mM EDTA) overnight at 4 °C. Isotype control IgG was used as a negative control. The beads were then washed twice with digitonin buffer [wash buffer +0.01% Digitonin] and 2.5 μL pAG-MNase was added to each sample. After ten minutes of incubation at room temperature, excessive pAG-MNase was washed out by a two-time digitonin buffer wash. Then targeted chromatin was digested and released from cells by 2 h of incubation with the presence of 2 mM CaCl2 at 4 °C. After incubation with stop buffer [340 mM NaCl, 20 mM EDTA, 4 mM EGTA, 50 μg/mL RNase A, 50 μg/mL Glycogen] for 10 min at 37 °C the supernatant containing CUT&RUN-enriched DNA was purified using the CUTANA DNA Purification kit (Epicypher). Finally, Illumina sequencing libraries were prepared from 6 ng of purified CUT&RUN DNA using NEBNext UltraTM II DNA Library Prep Kit for Illumina, following the manufacturer’s instructions. For BRD4, some modifications were added following the protocol of Nan Liu (Harvard University; 10.17504/protocols.io.wvgfe3w). Libraries were sequenced using NEXTseq500 (Illumina).
The Cut&Run samples were analyzed using the CUT&RUN tools pipeline with default settings and no filtering for 120 bp fragments. Peak calling was performed on deduplicated reads with macs2 version 2.2.6 using the respective IgG samples as control, narrow peak calling and paired-end settings, and a threshold of q = 0.01.
Specifically, 12 chromatin states, based on the combination of 6 histone marks, for 38 AML samples were used[59]. The vast majority of the regions could be entirely annotated to a single chromatin state while some could be entirely annotated to a single chromatin state after the replacement of consecutive chromatin states with similar characteristics with one of them (i.e combination of Transcription Transition / Transcription Elongation / Weak Transcription to Transcription Transition or combination of Heterochromatin; Represesed/ Heterochromatin; Low Signal to Heterochromatin; Repressed etc). The regions that couldn’t be entirely annotated to a single chromatin state or simplified chromatin state were removed. […] We then calculated the percentage of each chromatin state taking into account the width of the regions. As background, we used all the regions of each AML sample and we calculated the percentage of the chromatin states similarly. Finally, we calculated the fold change of each chromatin state as a percentage in the sample to a percentage in the background AML sample.

[1] = test system: ML-2 xenograft in BALB/cA Rag2-/-γc-/- mice; test: Subcutaneous xenograft model (tumor volume, CD11b q-PCR, H3Ac, body weight); assay type: in vivo, mouse; conditions: for Tumor volume: ML-2 subcutaneous xenograft, individual mice (Fig 3B); for body weight of mice: subcutaneous ML-2 AML mouse model, individual mice
Protocol: (§1) The subcutaneous xenograft models of ML-2 and MV4-11 derived cells, 5 × 10^6 and 10 × 10^6 cells, respectively, diluted in 100 µL of saline solution were subcutaneously inoculated in the back left flank of female BALB/cA Rag2^−/−γc^−/− mice. When tumors became palpable, the mice were randomized into three groups: vehicle, CM-444 and CM-1758, (eight animals/group). Treatment with 10 mg/kg of CM-444 or CM-1758 i.p. was started 4 days after injection when all mice presented subcutaneous tumors and was administered for 5 consecutive days followed by 2 resting days over 3 weeks for the ML-2 model or daily for 2 weeks for the MV4-11 model. The control group received only 80% saline solution, 10% DMSO […] 10% Tween 20 (diluents of CM-444 and CM-1758). Tumor size was analyzed every 2–3 days using the following method: […], where D and d corresponded to the longest and shortest diameter, respectively. The maximal tumor size/burden permitted by the Animal Care and Ethics Committee of the University of Navarra is 2000 mm^3. This maximal tumor size/burden was not exceeded in any case. ML-2 and MV4-11 tumors were explanted for differentiation and global histone acetylation analysis. Histones were extracted, and a western blot of H3Ac was performed as described above. For the differentiation study, RNA was extracted, and q-PCR of CD11b was performed as described above (CD11b sequence primer can be found in Supplementary Table 10).

[2] = test system: MV4-11 xenograft in BALB/cA Rag2-/-γc-/- mice; test: as above; assay type: in vivo, mouse; conditions: for Tumor volume: MV4-11 subcutaneous xenograft, in mm³; for Tumor volume / body weight of mice: individual mice; for body weight of mice: subcutaneous MV4-11 AML mouse model
Protocol: as §1

## COc1cc2nc(-c3ccc(C)o3)cc(NCC3CCN(c4ncc(C(=O)NO)cn4)CC3)c2cc1OC [CM-444, 2-[4-[[[6,7-dimethoxy-2-(5-methyl-2-furyl)-4-quinolyl]amino]methyl]-1-piperidyl]pyrimidine-5-carbohydroxamic acid]
HL-60
  BRD4 CUT&RUN peaks: 19570
  H3K9Ac CUT&RUN peaks: 7568
  H3K27Ac CUT&RUN peaks: 48991
[1]; ML-2 s.c., 10 mg/kg i.p.
  CD11b expression in explanted tumors: significant increase in CD11b expression
  H3Ac levels in tumors: increase in H3Ac levels
[1]; ML-2 s.c., 10 mg/kg i.p., 5 days on/2 off, 3 weeks
  tumor growth: inhibited tumor growth significantly
[1]; day 0, in mm³
  Tumor volume: 0
[1]; day 8
  Tumor volume: 50.29 and 0 (2×) and 44.4222 and 26.1593 and 17.7985 and 33.6927 and 34.1731
  body weight of mice: 23 and 21.7 (2×) and 22.6 and 22.9 and 19.8 and 23.2 and 21.8
[1]; day 11, in mm³
  Tumor volume: 57.5494 and 54.0642 and 29.9608 and 34.453 and 70.3613 and 12.6567 and 13.356 and 62.0802
[1]; day 13, in mm³
  Tumor volume: 71.0807 and 75.9644 and 34.9942 and 17.4964 and 64.0599 and 59.7475 and 31.61 and 81.1976
[1]; day 15, in mm³
  Tumor volume: 260.999 and 204.675 and 90.5639 and 88.4341 and 135.48 and 171.734 and 101.038 and 206.002
[1]; day 18, in mm³
  Tumor volume: 480.691 and 730.912 and 126.029 and 148.778 and 375.191 and 457.823 and 357.768 and 468.956
[1]; day 20, in mm³
  Tumor volume: 765.508 and 824.168 and 527.843 and 397.65 and 611.294 and 688.039 and 576.047 and 641.268
[1]; after in vivo treatment, subcutaneous ML-2 mouse model, western blot, individual tumors
  Relative H3Ac/H3 total levels: 1.215 and 1.184 and 2.112 and 1.745 and 1.414 and 2.588
[1]; day 4, in g (unit assumed)
  body weight of mice: 25.5 and 22.7 and 24.1 and 24.4 and 23.6 and 21.4 and 26.1 and 23.7
[1]; day 6, in g (unit assumed)
  body weight of mice: 24.2 and 22.1 and 23.5 and 23 and 22.4 and 20.6 and 24.7 and 22.8
[1]; day 11, in g (unit assumed)
  body weight of mice: 25 and 22 and 24 and 24.2 and 22.6 and 21.1 and 24.3 and 21.9
[1]; day 13, in g (unit assumed)
  body weight of mice: 24.5 and 21.9 and 23.2 and 22.6 and 22.9 and 21.2 and 24.7 and 22.3
[1]; day 15
  body weight of mice: 24.9 and 22.5 and 22.9 and 22.2 (2×) and 21.3 and 24.8 and 22.1
[1]; day 18, in g (unit assumed)
  body weight of mice: 24.7 and 23.2 and 23.6 and 22 and 23 and 21.6 and 24.9 and 23.5
[1]; day 20
  body weight of mice: 24.4 and 23.5 and 23.1 (2×) and 20.8 and 21.2 and 25.5 and 23.3
[1]; tumors of the subcutaneous ML-2 model, individual tumors (Fig 3C)
  CD11b expression from tumors measured by q-PCR: 4.258 log10 (2-ΔΔCt) and 6.115 log10 (2-ΔΔCt) and 1.258 log10 (2-ΔΔCt) and 2.581 log10 (2-ΔΔCt) and 3.258 log10 (2-ΔΔCt)
[2]; MV4-11 s.c., 10 mg/kg i.p.
  CD11b expression in explanted tumors: significant increase in CD11b expression
  H3Ac levels in tumors: increase in H3Ac levels
[2]; MV4-11 s.c., 10 mg/kg i.p. daily, 2 weeks
  tumor growth: very close to significance
[2]; day 0
  Tumor volume: 0
[2]; day 7
  Tumor volume: 3.193
  body weight of mice: 20.3 and 18.1 and 19.6 (2×) and 20.5 and 18.3 and 21.6 and 18.4 and 21 and 20.7
[2]; day 9
  Tumor volume: 111.805 and 139.808 and 128.905 and 58.5153 and 61.4614 and 71.8536 and 82.1349 and 57.0445 and 0 and 108.84
  body weight of mice: 20.7 (2×) and 19.1 (2×) and 20.2 and 19.2 and 20.4 (2×) and 18.9 and 20.6
[2]; day 12
  Tumor volume: 294.457 and 409.686 and 535.985 and 179.87 and 403.211 and 161.575 and 360.839 and 457.558 and 8.3776 and 264.463
  body weight of mice: 22.2 (2×) and 19.1 and 21.6 and 20 and 22.4 and 20.6 and 23 and 20.1 and 22.6
[2]; day 14
  Tumor volume: 459.841 and 410.79 and 840.745 and 257.398 and 607.597 and 355.301 and 487.51 and 302.43 and 18.6928 and 395.414
  body weight of mice: 22.1 (2×) and 19.1 and 20.3 and 22.6 (3×) and 20.9 and 23.1 and 19.5
[2]; after in vivo treatment, subcutaneous MV4-11 mouse model, western blot, individual tumors
  Relative H3Ac/H3 total levels: 0.9852 and 1.143 and 1.277 and 1.092 and 1.163 and 1.09
[2]; day 1
  body weight of mice: 21.9 and 20.2 and 23.1 and 24.4 (2×) and 23 and 20.9 and 24.3 and 21.3 and 23.6
[2]; day 5, in g (unit assumed)
  body weight of mice: 20.4 and 18.7 and 20.7 and 21.6 and 21.5 and 19 and 21.7 and 18.8 and 21.2 and 21
[2]; day 16
  body weight of mice: 21 (2×) and 19.6 and 22 and 21.9 and 20.1 and 24.8 and 20.6 and 22.3 (2×)
[2]; tumors of the subcutaneous MV4-11 model, q-PCR, individual tumors
  CD11b expression, log10 (2-ΔΔCt): 1.258 and 2.58 and 3.158 and 0.925
